The nature of series [1]: in vivo. To be noted: Sprague-Dawley, rat, po, 5 mg/kg.
The conditions of series [2]: Sprague-Dawley, rat, in vivo, iv, 2 mg/kg, 24 h.
The nature of series [3]: in vivo. To be noted: Sprague-Dawley, rat, po, 5 mg/kg. This is another data set of the same source.
Series [4] is described as follows: physchem.
Series [5] in a line: in vivo. Particulars: Sprague-Dawley, rat, iv, 2 mg/kg.
Series [6] is described as follows: in vivo. To be noted: Sprague-Dawley, rat, po, 5 mg/kg. This is another data set of the same source.
The nature of series [7]: in vivo. Particulars: Sprague-Dawley, rat, po, 5 mg/kg. The source holds these as a separate data set.
Series [8] is described as follows: physchem. To be noted: octanol/water.

Broadly, the half-life is how long it takes for the measured level to halve. Low values mean rapid decline, high ones slow decline. Usually bioavailability stands for dose-corrected exposure relative to a reference, in per cent. The low end stands for little systemic uptake, the high end for much systemic uptake. For orientation: pKa means the pH at which an ionisable group is half protonated. What is called Cmax is the peak of the concentration-time curve. As usually defined, the AUC(0-t) is the area under the concentration-time curve up to a stated or last time point. A high value points to more exposure. For orientation: logP means a log measure of how a compound divides between an organic and an aqueous phase. A higher logP goes with higher lipophilicity. In turn, `COc1ccc(S(=O)(=O)n2cc(C(F)F)c3ccc(F)cc32)cc1N1CCNCC1` gave a half-life at 24 h in the series “in vivo [1]” of 3.4 h. This molecule gave an AUCt in series [2] of 290 ng·h/mL. Besides, the bioavailability at 24 h in “in vivo [3]” was found to be 14.4%. The molecule also yielded a pKa in the series “physchem [4]” of 8.62. For the same molecule, the figures for the Cmax at 24 h in “in vivo [5]” and in “in vivo [6]” were 77 ng/mL and 24 ng/mL, respectively. The AUC(0-t) at 24 h in the series “in vivo [7]” was determined as 102 ng·h/mL. Also, in the series “physchem [8]”, the logP worked out at 3.39.

Regarding `COc1ccc(S(=O)(=O)n2cc(C(F)F)c3cc(Cl)ccc32)cc1N1CCNCC1`, the pKa in “physchem [4]” stood at 8.66. The molecule further yielded a logP in the series “physchem [8]” of 3.85.

`COc1ccc(S(=O)(=O)n2cc(C)c3ccc(F)cc32)cc1N1CCNCC1` had a pKa in the series “physchem [4]” of 8.78. This molecule gave a logP in the series “physchem [8]” of 3.3.

The molecule `COc1ccc(S(=O)(=O)n2cc(C(F)F)c3cc(F)ccc32)cc1N1CCNCC1` returned a pKa in the series “physchem [4]” of 8.78. In “physchem [8]”, this molecule showed a logP of 3.31.

Regarding `COc1ccc(S(=O)(=O)n2cc(C)c3cc(F)ccc32)cc1N1CCNCC1`, the logP in “physchem [8]” turned out to be 3.22.

In “in vivo [1]”, `COc1ccc(S(=O)(=O)n2ccc3ccc(Br)cc32)cc1N1CCNCC1` showed a half-life at 24 h of 2.1 h. Moreover, in series [2], the AUCt was found to be 153 ng·h/mL. The bioavailability at 24 h in “in vivo [3]” came to 9.35%. Also, the pKa in the series “physchem [4]” was determined as 8.68. For the same molecule, the Cmax at 24 h in the series “in vivo [5]” amounted to 133 ng/mL; in “in vivo [6]”, 10 ng/mL. This molecule showed an AUC(0-t) at 24 h in “in vivo [7]” of 32 ng·h/mL. Moreover, the logP in “physchem [8]” turned out to be 3.73.

The record behind these values is ChEMBL document CHEMBL5113494, “Novel difluoromethyl-containing 1-((4-methoxy-3-(piperazin-1-yl)phenyl)sulfonyl)-1H-indole scaffold as potent 5-HT6R antagonists: Design, synthesis, biological evaluation, and early in vivo cognition-enhancing studies” (Bioorg Med Chem, 2022).
